In PMC7892437 (Frontiers in Pharmacology, 2021):
Values joined by “and” are separate entries in the source; they are usually repeats but may differ in a detail not shown here. Identical values can stand only once. Like-named read-outs stand apart in the source and are kept apart here.

Tests used:
[1] = test system: VSV-SARS-CoV-2-Sdel18 pseudovirus; assay: microbe, parasite or virus in culture; type: cell-based
VSV-G = type: cell-based, vesicular stomatitis virus
[2] = test system: SARS-CoV-2 BetaCoV/Shenzhen/SZTH-003/2020 strain; assay: microbe, parasite or virus in culture; type: cell-based; settings: for inhibitory effect relative to Chloroquine diphosphate: authentic SARS-CoV-2 assay, in vitro
in vitro = settings: hamster
Ebola virus = settings: ref Johansen et al., 2013; cited from earlier work
[3] = Pseudovirus, read-out: Co-treatment IC50
[4] = Pseudovirus, read-out: Co-treatment IC90
[5] = Pseudovirus, read-out: Pre-treatment IC50
[6] = Pseudovirus, read-out: Pre-treatment IC90
[7] = Severe acute respiratory syndrome coronavirus 2, Vero, 120 h

CC[C@@H]1/C=C(\C)C[C@H](C)C[C@H](OC)[C@H]2O[C@@](O)(C(=O)C(=O)N3CCCC[C@H]3C(=O)O[C@H](/C(C)=C/[C@@H]3CC[C@H](Cl)[C@H](OC)C3)[C@H](C)[C@@H](O)CC1=O)[C@H](C)C[C@@H]2OC [Pimecrolimus]
IC90 [1]: 32 µM | IC50 ([1]; Pseudovirus, 12 h): 11.3 µM | IC90 ([1]; Pseudovirus, 12 h): < 50 µM | cytotoxicity compared with the other selected drugs (BHK21-hACE2 cells): more serious cytotoxic than other drugs

NC(=O)c1ncn([C@@H]2O[C@H](CO)[C@@H](O)[C@H]2O)n1 [Ribavirin]
IC50 ([1]; Pseudovirus, 12 h): 9.29 µM | IC90 ([1]; Pseudovirus, 12 h): 62.1 µM | inhibitory effect on VSV-G (VSV-G): significant inhibitor effects

CN1CCc2c(c3ccccc3n2Cc2ccccc2)C1 [Mebhydrolin (napadisylate)]
IC50 ([1]; read-out: IC50): 12.1 µM | IC90 ([1]; read-out: IC90): 133 µM

Cc1ccc(Sc2ccccc2N2CCNCC2)c(C)c1 [Vortioxetine]
IC90 [1]: 46.6 µM | IC50 ([1]; Pseudovirus, 12 h): 7.16 µM | IC90 ([1]; Pseudovirus, 12 h): < 50 µM | IC50 [1, 3]: 6.77 µM | IC90 [1, 4]: 22.3 µM | IC50 [1, 5]: 3 µM | IC90 [1, 6]: 13.8 µM | IC50 [2, 7]: 8.03 µM | IC90 [2, 7]: 18.3 µM | inhibitory effect relative to Chloroquine diphosphate [2]: comparable to Chloroquine diphosphate | CC50 (in vitro; Co-treatment CC50): 27.1 µM | CC50 (in vitro; Pre-treatment CC50): 28.5 µM

Br.Cc1ccc(Sc2ccccc2N2CCNCC2)c(C)c1 [Vortioxetine (hydrobromide)]
IC50 ([1]; read-out: IC50): 6.99 µM | IC90 ([1]; read-out: IC90): < 50 µM and 44.6 µM | IC50 [2]: 28.1 µM | IC90 [2]: 62.8 µM | inhibitory effect relative to Chloroquine diphosphate [2]: slightly less effective

CN1CCN(CCCN2c3ccccc3Sc3ccc(C(F)(F)F)cc32)CC1.Cl.Cl [Trifluoperazine (dihydrochloride)]
IC50 ([1]; read-out: IC50): 5.44 µM | IC90 ([1]; read-out: IC90): < 50 µM and 27.3 µM | cytotoxicity compared with the other selected drugs (BHK21-hACE2 cells): more serious cytotoxic than other drugs

CN(C)c1ccc2nc3ccc(=[N+](C)C)cc-3sc2c1 [Methylene Blue]
IC50 ([1]; Pseudovirus, 12 h): 9.05 µM | IC90 ([1]; Pseudovirus, 12 h): 70.5 µM

CCN(CC)CCOc1ccc(C(=C(Cl)c2ccccc2)c2ccccc2)cc1 [Clomiphene (citrate)]
IC90 [1, 4]: 19.6 µM | IC90 [2, 7]: 33.9 µM | CC50 (in vitro; Co-treatment CC50): 54.4 µM | CC50 (in vitro; Pre-treatment CC50): 24.9 µM

CN(C)CCOc1ccc(/C(=C(/CCCl)c2ccccc2)c2ccccc2)cc1 [Toremifene (Citrate)]
IC50 ([1]; read-out: IC50): 5.53 µM | IC90 ([1]; read-out: IC90): 86.5 µM

CCN(CC)CCCC(C)Nc1ccnc2cc(Cl)ccc12 (stereo not shown) [Chloroquine diphosphate]
IC50 ([1]; Pseudovirus, 12 h): 11.6 µM | IC90 ([1]; Pseudovirus, 12 h): 85.2 µM | IC50 [1, 3]: 27.6 µM | IC50 [1, 5]: 9.27 µM | IC90 [1, 6]: 35.2 µM | IC50 [2, 7]: 5.33 µM | IC90 [2, 7]: 12.9 µM

CCCCc1oc2ccccc2c1C(=O)c1cc(I)c(OCCN(CC)CC)c(I)c1.Cl [Amiodarone (hydrochloride)]
effect on authentic SARS-CoV-2 virus infection ([2]; at a concentration of 100 μM): no effect

CCN(CC)CCOc1ccc(C(=C(Cl)c2ccccc2)c2ccccc2)cc1 [Clomiphene]
survival benefit for infected mice (Ebola virus): 90%

CN1C[C@@H]2c3ccccc3Oc3ccc(Cl)cc3[C@H]2C1.Cl (racemic) [Asenapine (hydrochloride)]
IC90 ([1]; read-out: IC90): 76.4 µM | IC90 [2]: 43 µM | cell cytotoxicity (BHK21-hACE2 cells; at the concentration of 100 μM): no obvious cell cytotoxicity was observed
